What was measured:
[1] = tested on: planktonic sulfate reducing bacteria; assay: Efficacy of metabolic inhibitor for planktonic sulfate reducing bacteria (NACE standard TMO194-94 test method); assay type: cell-based; conditions: planktonic SRB, field mix water samples at 85 deg F. (29.4 deg C.), FIG. 1
Procedure: (§1) Efficacy of metabolic inhibitor for sulfate reducing bacteria was tested. NACE standard TMO194-94 test method was employed for testing the presence of general heterotrophic bacteria (GHB), acid producing bacteria (APB), and sulphate reducing bacteria (SRB) in field mix water samples at 85 deg F. (29.4 deg C.) containing different metabolic inhibitors and microbiocides: 100 ppm active or 200 ppm of calcium nitration solution and 125 ppm active glut or 500 ppm glut solution were used. In a first example, shown in FIG. 1, efficacy of metabolic inhibitor for planktonic sulfate reducing bacteria is tested. In a second example, shown in FIG. 2, efficacy of metabolic inhibitor for sessile sulfate reducing bacteria is tested.

[2] = tested on: sessile sulfate reducing bacteria; assay: Efficacy of metabolic inhibitor for sessile sulfate reducing bacteria (NACE standard TMO194-94 test method); assay type: cell-based, sulfate reducing bacteria (SRB)
Procedure: as §1

calcium nitration solution [metabolic inhibitor]
efficacy against sulfate reducing bacteria [1]: kill and/or inhibit the growth | impact on sessile versus planktonic population ([2]; maximum effect after 28 days): greater impact on the sessile bacteria population than the planktonic population | efficacy against sulfate reducing bacteria ([2]; sessile SRB, field mix water samples at 85 deg F. (29.4 deg C.), FIG. 2): kill and/or inhibit the growth

Source: US8614170B2, “Method for treating fracturing water” (Schlumberger Technology Corporation, priority 2008, dated 2013)
